Patent US20230220443A1, “CHARACTERIZATION OF S-ADENOSYL-L-METHIONINE-CONSUMING ENZYMES WITH 1-STEP EZ-MTASE: A UNIVERSAL COUPLED-ASSAY” (ALBERT EINSTEIN COLLEGE OF MEDICINE, priority 2017, published 2023)
Where “and” joins values, the source holds several entries; their conditions need not be identical. Equal values may be shown once. Read-outs that look alike come from different tables or passages of the source.

Tests used:
[1] = pKa from pH-dependence of differential extinction coefficient (UV); assay type: physicochemical
Method: Nucleoside concentrations (stock solutions) were determined using known extinction coefficients for: adenosine, 259(ε/M^−1 cm^−1 15,400) and 8-aza-adenosine, 277(e/M-1 cm^−1 17,830). The deaminase reactions using these various substrates were performed in quartz cuvettes (1-cm light path; 3-mL reaction volume) and absorbance measurements were carried out with a NanoDrop 2000c (scan mode: 220-320 nm with multi scans superimposed; 37° C. and continuous stirring). Briefly, the 3-mL reactions contained 50 mM buffer (acetate: pH 4.00-5.00; MES: pH 5.00-6.50; phosphate: pH 5.80-8.00; TRIS: pH 7.50-8.50; CHES: pH 8.90-9.90), 1 mM βME and 10% glycerol. Five different concentrations of either adenosine or 8-aza-adenosine substrates were used (10, 20, 30, 40 and 50 μM). Mixtures were blanked before acquisition and reactions started upon addition of deaminase (TM0936, 2 μL of 240.5 μM enzyme stock). Over the course of the deaminase reaction (e.g. adenosine→inosine), optimum wavelengths at which the highest absorbance shift is observed were selected (i.e. adenosine reaction, λ=[…]; 8-aza-adenosine reaction, λ1=282 nm and λ2=292 nm). Scans were recorded until the absorbance at these monitored wavelengths reached a stable value (82). For each pH condition, the end-point absorbance shifts were plotted against initial nucleoside concentrations and fitted to a linear regression: each slope is a differential extinction coefficient (Δε) for deamination of the specific nucleoside substrate. Furthermore, the pH-dependence of differential extinction coefficient (Ae) for this deaminase reaction was obtained by plotting the pairs (Δε; pH) and fitting these to the following supplementary Eq. 2:
where ΔεHIGH pH and ΔεLOW pH are the extinction coefficient measured at optimum wavelengths (i.e. λ for adenosine and λ1 or λ2 for 8-aza-adenosine) for the deaminase reaction at high and low pH, respectively, and […] is the logarithm of acid dissociation constant for either inosine or 8-aza-inosine.

[2] = cited from earlier work
[3] = pKa from pH-dependence of fluorescence; assay type: physicochemical; settings: 50 mM buffer series
Method: Calibration of fluorescence signal for the 8-aza-A to 8-aza-I reaction—This procedure is very similar to the one described under “Differential Extinction Coefficients (Δε) for Deaminase Reaction”. Briefly, standard solutions (240 μL) of 8-aza-adenosine (0-25 μM; 12 data points) containing 50 mM buffer (pH 5.00-9.50), 10% glycerol and 1 mM βME, were loaded into a […] black flat bottom plate. 10-μL water per well were added to one data-set (12 concentrations of 8-aza-adensoine); 10-μL TM0936 solution (24.05 μM) were added to the remaining samples (12 concentrations of 8-azaadenosine at various pH values). The loss of fluorescence (Em=360 nm) from 8-azaadenosine standard solutions (Ex=282/292 nm) where recorded with a Spectramax M5 plate reader until no change in signal could be observed.
At a same pH, the comparison between end-point deaminase reactions and reference well (TM0936 added but no 8-aza-adenosine) provided the pH-dependence of 8-azainosyl fluorescence. […] Furthermore, the comparison between end-point deaminase reactions and reference well (various 8-aza-adenosine concentrations but no TM0936 added) provided the calibration curve of fluorescence signal for the 8-aza-adenosine to 8-aza-ionisine reaction. […]

[4] = target: T1, deaminase TM0936 (Thermotoga maritima, UniProt Q9X034); test: Deamination by coupling enzyme TM0936; assay type: biochemical
T1 construct: polyhistidine; made in house; host or cells: bacteria
T1 sequence (Q9X034 1-406): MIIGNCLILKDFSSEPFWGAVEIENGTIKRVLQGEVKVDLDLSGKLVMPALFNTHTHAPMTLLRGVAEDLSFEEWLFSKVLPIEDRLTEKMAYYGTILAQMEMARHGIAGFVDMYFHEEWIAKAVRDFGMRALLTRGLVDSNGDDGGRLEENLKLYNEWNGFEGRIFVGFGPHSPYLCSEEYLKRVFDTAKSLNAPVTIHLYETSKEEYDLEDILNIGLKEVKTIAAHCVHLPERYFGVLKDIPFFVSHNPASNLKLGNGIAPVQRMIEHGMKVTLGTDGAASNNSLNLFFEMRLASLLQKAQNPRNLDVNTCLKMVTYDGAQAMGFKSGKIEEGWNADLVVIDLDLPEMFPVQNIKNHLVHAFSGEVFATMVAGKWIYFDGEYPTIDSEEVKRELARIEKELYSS
Method: FIG. 9A-9D. Sinefungin is a positive control compatible with the 1-Step EZ-MTase assay. (A) MTAN-based assays catabolize the methyltransferase inhibitor sinefungin (SIN). […] (C) pH-dependence of the reaction between sinefungin and TM0936. […] (D) Inhibition of the sarcosine/dimethylglycine methyltransferase by sinefungin. […] The initial methyltransfer rates were recorded at 263 nm. Further analysis provided the inhibition constant Ki (1.8±0.4 μM).

[5] = target: T2, GsSDMT (Galdieria sulphuraria, UniProt M2XPA0); test: 1-Step EZ-MTase UV-based coupled assay, GsSDMT kinetics; assay type: biochemical; settings: pH=7.80, co-substrate saturating
T2 sequence (M2XPA0 2-297): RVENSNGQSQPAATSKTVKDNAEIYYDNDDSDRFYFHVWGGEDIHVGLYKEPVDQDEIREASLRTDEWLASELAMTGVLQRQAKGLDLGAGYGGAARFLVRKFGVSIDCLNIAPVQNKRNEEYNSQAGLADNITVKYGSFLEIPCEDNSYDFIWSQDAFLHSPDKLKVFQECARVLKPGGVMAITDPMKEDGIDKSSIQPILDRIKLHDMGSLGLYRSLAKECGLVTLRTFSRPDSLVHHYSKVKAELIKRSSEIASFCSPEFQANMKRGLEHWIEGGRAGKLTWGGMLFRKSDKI
Method: Kinetic behavior for sarcosine against GsSDMT (SAM sat.)—Experiments were conducted following matching CePRMT5 protocol above. Briefly, the 100-μL mixtures from a same row contained 100 mM phosphate buffer pH=7.80, 1 mM βME, 5% glycerol, 100 μM MgCl2, 4 μM coupling deaminase TM0936, 976 nM GsSDMT and various sarcosine concentrations (0.5-12.5 mM; in the first well, sarcosine was omitted to account for background signal—natural decomposition of SAM). Reactions started upon addition of SAM (750 μM saturating final concentration), 60-μL volumes were transferred onto UV plate and absorbance was recorded. Initial rates were first corrected for background signal, and then plotted against sarcosine concentrations. Fit to the Michaelis-Menten equation provided corresponding kinetic parameters.
Kinetic behavior for SAM against GsSDMT (sarcosine sat.)—Experiments were conducted following matching CePRMT5 protocol above. Briefly, the measurements consisted of two experimental subsets: MTase reactions (both SAM and sarcosine added) and MTase blanks (SAM was added without sarcosine to account for natural SAM decomposition). The 100-μL reaction mixtures from a same row contained 100 mM phosphate buffer pH=7.80, 1 mM βME, 5% glycerol, 100 μM MgCl2, 4 μM coupling deaminase TM0936, 195 nM GsSDMT and various SAM concentrations (49.9-750.2 μM). Reactions started upon addition of either sarcosine (10 mM saturating final concentration; MTase reactions) or water (MTase blanks), 60-μL volumes were transferred onto UV plate and absorbance was recorded at 263 nm. Initial rates were first corrected for background signal, and then plotted against SAM concentrations. Fit to the Michaelis-Menten equation provided corresponding kinetic parameters.
Kinetic behavior for 8-aza-SAM against MTases (acceptor sat.)—Briefly, kinetic parameters were determined at 20° C. in a UV-Star 96-well flat bottom plate (Greiner Bio-One, #655801) by continuous monitoring of absorbance at 282 nm using a SpectraMax M5 instrument (Molecular Devices). As for SAM experiments, the measurements consisted of two experimental subsets: MTase reactions (both 8-aza-SAM and acceptor added) and MTase blanks (8-aza-SAM was added without acceptor to account for natural 8-aza-SAM decomposition). The 250-μL (60-μL) reaction mixtures from a same row contained 50 mM phosphate buffer pH=7.60 (7.80), 1 mM βME, 10% glycerol (5% glycerol, 100 μM MgCl2), 4 μM coupling deaminase TM0936, either 1.5 μM CePRMT5 or 402 nM TbPRMT7 (or 610 nM GsSDMT) and various 8-aza-SAM concentrations. […] Initial rates were first corrected for background signal, then plotted against 8-aza-SAM concentrations and fitted to the Michaelis-Menten equation to yield corresponding kinetic parameters.

For `OC[C@H]1O[C@@H](n2cnc3c(O)ncnc32)[C@H](O)[C@@H]1O` [inosine], the pKa ([1]; 263 nm) is listed as 8.72 ± 0.09 and the pKa ([2]; inosine, literature) is listed as 8.9 and 8.85.

`OC[C@H]1O[C@@H](n2nnc3c(O)ncnc32)[C@H](O)[C@@H]1O` [8-aza-inosine] showed a pKa ([1]; 282 nm) of 7.29 ± 0.03, a pKa ([1]; 292 nm) of 7.3 ± 0.03 and a pKa ([3]; pH 5.00-9.50, Ex/Em 282/360 nm) of 7.5 ± 0.03. It also gave a pKa ([3]; pH 5.00-9.50, Ex/Em 292/360) of 7.54 ± 0.04.

For `Nc1ncnc2c1ncn2[C@@H]1O[C@H](CSCC[C@H](N)C(=O)O)[C@@H](O)[C@H]1O` [SAH, S-adenosyl-L-homocysteine], the Km ([4]; room temperature) was 0.6 ± 0.2 µM and the kcat ([4]; room temperature) was 7.1 ± 0.4 s⁻¹.

In the case of `CNCC(=O)O` [Sarcosine, sarcosine], the pKa ([2]; methyl-amine group from sarcosine) is given as 10.0, the pKa ([2]; sarcosine carboxylate) is given as “≈ 2.2” and the kcat [5] is given as 1.5 ± 0.083 s⁻¹.

With `Nc1ncnc2c1ncn2[C@@H]1O[C@H](CO)[C@@H](O)[C@H]1O` [adenosine] the “deamination by TM0936, slower than that of its 8-aza analog” value ([4]; 10 μM substrate, 1 nM TM0936 (FIG. 7A)) was 10 fold.
